# Measurements reported in patent US6849405B2, “Translation enhancer element of the human amyloid precursor protein gene” (The Brigham and Women's Hospital, Inc., priority 1997, dated 2005).
# Legend:
# [1] = system: L-ferritin synthesis in astrocytoma (U373MG) cells; assay: L-ferritin synthesis, astrocytoma cells; assay type: cell-based, human; details: 0.5 ng/ml, 16 hrs
# Procedure: (§1) Primary human astrocytes were prepared by trypsinization of human fetal brain tissue by a previously described method (Das, et al., Neuron 14; 447 (1995)). Cells were seeded onto poly-L-lysine (10 μg/ml) coated plates and were grown to 70% confluence in DMEM medium, (low glucose) supplemented with 10% fetal bovine serum. In order to eliminate microglia, the cultures were treated with 5 mM H-Leu-O-methylester (Guilian, J. Neurosci. Res. 18:155 (1987)). For immunofluorescence, cells were replated at a density of 100,000 cells per 60-mm petri dish on poly-L-lysine coated glass coverslips and grown for 24 hours in 0.5 ml of medium to allow the cells to attach. The presence of glial fibrillary acidic protein (GFAP) was detected by immunofluorescent staining of formaldehyde fixed cells using a 1:10 dilution of rabbit IgG1 antibody specific for human GFAP. Primary GFAP-specific antibody was added to the coverslips for 30 minutes at room temperature in phosphate buffered saline and 10% goat serum. The secondary antibodies used were goat anti-rabbit IgG conjugated to fluorescein isothiocyanate at a dilution of 1:100 (Boehringer). Fluorescence microscopy scored the cells used in the metabolic experiments as 95% pure astrocytes. […] The U373MG astrocytoma cell line was cultured on 100 mm uncoated dishes to 60-80% confluence in DMEM medium supplemented with 10% fetal bovine serum. […]
# [2] = system: APP synthesis in human astrocytoma (U373MG) cells; assay: APP synthesis, [35S]-methionine labeling and immunoprecipitation, astrocytoma cells; assay type: cell-based; details: 0.5 ng/ml, 16 hrs, maximal
# Procedure: as §1
# [3] = system: APP(s) secretion from primary human astrocytes; assay: Secretion of APP(s) (protease-nexin II) into medium from primary astrocytes; assay type: cell-based; details: 2 hour pulse labeling
# Procedure: (§2) Secretion and labeling of APP(s) (protease-nexin-2) from primary astrocytes by IL-1 was measured in a separate set of experiments. Medium from 100 mm dishes (10 ml) of astrocyte cultures was collected after a 2-hour pulse labeling with 200 μCi/ml [^35S]-methionine. APP in 5 ml of precleared medium was immunoprecipitated using a 1:1500 dilution of rabbit polyclonal serum specific for amino acids 595-611 of APP (R1736, D. Selko). Apolipoprotein E was immunoprecipitated from 5 ml of culture supernatant using a 1:200 dilution of a polyclonal antiserum (Chemicon).
# (§3) In all labeling experiments, immunoprecipitated protein was collected by the binding of antibody-labeled antigen complexes to Protein A Sepharose™ beads. Immunoprecipitated samples were applied to 10-20% tris-tricine gels (Novex) and the samples were electrophoresed in tris-tricine buffer according to the manufacturer's instructions. The gels were fixed with 25% methanol, […] for 1 hour, treated with fluorographic reagent (Amplify, Amersham) for 30 minutes, dried, and exposed to X-omat Kodak film overnight at −80° C.
# Apo-E protein synthesis = Apo-E protein synthesis (internal standard), primary astrocytes; assay type: cell-based; details: primary human astrocytes
# Procedure: as §2, §3
# APP/CAT mRNA = assay: RNase protection of APP/CAT mRNA in pSV2(APP)CAT-transfected astrocytoma cells; assay type: cell-based, human; details: 16 hours stimulation
# Procedure: Cells were lysed in 2 ml of a buffer containing 4 M guanidinium thiocyanate, 25 mM NaOac, pH 6.0, 100 mm β-mercaptoethanol. RNA was prepared after shearing the DNA and centrifuging the lysate at 31K, 23° C. for 12 hours through 5 ml of 5.7 M CsCl2 cushion. This procedure ensured that CAT mRNAs and endogenous ferritin mRNAs were purified as a pellet without contamination from plasmid DNA containing transfected CAT gene sequences. The RNA pellet was resuspended in TES buffer (10 mM Tris, pH 7.6, 1 mM EDTA, 0.5% SDS) and was extracted with an equal volume of phenol/chloroform, ethanol-precipitated and resuspended in TES buffer.
# Steady-state levels of transfected CAT mRNA from astrocytoma and neuroblastoma pSV2(APP)(CAT) transfectants was characterized by RNase protection. A 261 nucleotide ^32P-labeled cRNA was transcribed from a HindIII digested DNA template isolated from the CAT gene in the pSV2CAT subclone (Rogers, et al., Nucl. Acid Res. 22: 2678 (1994); Campbell, et al., Biochem. Biophys. Res. Commun. 160: 453 (1989); Fahmy, et al., Biochem. J. 296; 175 (1993)). Labeled cRNA, antisense to the CAT gene, was hybridized to 20 μg of mRNA purified from pSV2(APP)(CAT) transfectants of astrocytoma cells. […] Kinase labeled HaeIII-digested X-174 DNA fragments were used as DNA markers for autoradiography and quantitation of CAT mRNA levels.
# [4] = system: ferritin-H subunit synthesis in astrocytoma (U373MG) cells; assay: Ferritin-H subunit synthesis, astrocytoma cells; assay type: cell-based, human; details: 0.5 ng/ml, 16 hrs
# Procedure: as §1
Substance,enhanced rate of L-ferritin synthesis [1],increase in rate of APP synthesis [2],increased accumulation of APP(s) ([3]; medium),ApoE protein synthesis (Apo-E protein synthesis),"decrease of steady-state level of CAT mRNA (APP/CAT mRNA; pSV2(APP)CAT transfectants, two separate transfections)",enhanced rate of ferritin-H subunit synthesis [4],enhanced secretion of APP(s) into the medium [3],increase of steady-state APP/CAT mRNA level relative to unstimulated cells (APP/CAT mRNA; pSV2(APP)CAT transfected astrocytoma cells)
interleukin-1α [IL-1α],2 fold,2.8 fold,50%,no increase,50%,5 fold,,
interleukin-1β [IL-1β],2 fold,4.3 fold,,no increase,,5 fold,1.8 fold,30%
